Data from patent US3958013A, “Halogenated cyclobutyl ether anesthetics” (W. R. Grace & Co., priority 1975, dated 1976).

Legend:
[1] = cited from earlier work; for anesthetic properties / utility: prior art statement (fluorocyclobutanes: Larsen 1969 review)
[2] = standard test for evaluation of inhalation anesthetics in mice (rotating drum, 10 min exposure); type: in vivo; conditions: mouse, in vivo, inhaled or intranasal; calculated from AC50 and LC50 minimum concentrations; read-out: AI (anesthetic index)
Description: (§1) In this test, mice were exposed to the compound for a period of 10 minutes in a rotating drum. Observations were made of the pinch reflex, the corneal reflex and the return of the righting reflex. At least four graded doses were employed to determine the minimum concentration required to anesthetized 50% of the mice (AC50) and the minimum concentration required to kill 50% of the mice (LC50). The anesthetic index (AI) was then calculated from these minimum concentrations.

mice = test: as above; type: in vivo; conditions: mice, inhalation, 10 minutes exposure, rotating drum; % volume
Description: as §1

Row | SMILES | anesthetic properties / utility [1] | selectivity ratio at 10 min [2] | LC50 (minimum concentration required to kill 50% of the mice) (mice) | further results
1 | FC1(F)C(F)(F)C(F)(Cl)C1(F)Cl (centres unmarked) [1,2-dichlorohexafluoro-] |  |  |  | toxicity ([1]; Larsen 1969 review): toxic
2 | FC1C(F)C(F)(F)C1(F)F (centres unmarked) [1,2-dihydrohexafluoro-] | possesses anesthetic properties |  |  | 
3 | COC1(F)C(F)(F)C(F)(F)C1(F)Cl (centres unmarked) [Example 1, 1-chloro-2-methoxy-1,2,3,3,4,4-hexafluorocyclobutane] |  | ~2 | 7-8% | 
4 | COC1CC(F)(F)C1(F)Cl (centres unmarked) [Example 2, 1-chloro-2methoxy-1,4,4-trifluorocyclobutane] |  | > 2 | > 2% | 
5 | COC1(F)C(F)(F)C(F)(F)C1(F)Br (centres unmarked) [Example 3, 1-bromo-2-methoxy-1,2,3,3,4,4-hexafluorocyclobutane] |  | > 2.5 | > 2.5% | 
6 | C1CCCC1 [cyclopentane] | no medical utility |  |  | 
7 | C1CC1 [cyclopropane] | effective if inflammable anesthetic |  |  | 
8 | FC1(F)C(F)(F)C(F)(F)C1(F)F [octafluoro-] | inactive |  |  | 
